Measured values taken from US11867660B2, “Electronic control of the pH of a solution close to an electrode surface” (Robert Bosch GmbH, priority 2015, dated 2024).

Assays:
[1] = Electro-oxidation/reduction of species at indium tin oxide electrode (voltammetry); type: physicochemical
Source text: FIG. 7B: Cyclic voltammetric study of the oxidation of Ascorbic acid test in ITO electrodes. Current increase around 0.25V indicates the start of oxidation at ITO electrodes.
Electrode material used: The electrode material was indium tin oxide. This is a semiconducting electrode surface with very large potential window in an aqueous solution.
Oxidation of ascorbic acid at the electrode surfaces produced H^+ ions and changed the electrode surface pH to a more acidic state: AH2→A+2H^++2e^−, where AH2 is ascorbic acid ([…]) (as shown in FIG. 5). The electrode potential at which it oxidizes was less than 0.5V for Indium tin oxide material vs Ag/AgCl reference electrode (as shown in FIG. 7). This potential was less than the voltages needed for the oxygen evolution reaction in aqueous solution. Higher electrode potential (e.g. >1V for ITO electrodes in just phosphate buffer) can damage the PEG layer (as shown in FIG. 8). The ascorbic acid also acted as a sacrificial species to prevent electrochemical degradation of the surface chemistry.
Reduction of benzoquinone (C6H4O2) into Hydroquinone (C6H6O2) can produce OH− ions at −0.1V: BQ+2e^−+2H2O→HQ+2OH^− This reduction reaction increased the pH at the electrode interface.

[2] = target: Green Fluorescent Protein (GFP) (Aequorea victoria, UniProt P42212); test: GFP fluorescence intensity after incubation with benzoquinones (protein stability); type: biochemical; details: 0.5 mM benzoquinone, phosphate buffered saline, 30 min
Source text: Para-benzoquinones and ortho-benzoquinones (compounds 2, 4, 6, and 9 in FIG. 22) are susceptible to nucleophilic attack at the double bond of the ring (positions 2, 3, 5 and 6 in structure 2 of FIG. 22, positions 3, 4, 5 and 6 in structure 4 of FIG. 22, and positions 2 and 3 in structure 6 of FIG. 22). Introducing substituents at some or all of those positions can mitigate the problem of nucleophilic attack. For example, 1,4-benzoquinone (structure 2 in FIG. 22, where R1, R2, R3 and R4 are H) undergoes Michael addition reaction with amino groups of proteins (Loomis et al., Phytochemistry, 5, 423, (1966) and U.S. Pat. No. 6,753,312 B2). […] Fluorescence intensity of Green Fluorescent Protein (GFP) was measured after incubation with three different benzoquinones in phosphate buffered saline for 30 min (concentration of benzoquinones was 0.5 mM). The difference in fluorescence intensity indicates the varied effect that the different substitutions in benzoquinones have on the stability of GFP. Fluorescence intensity of GFP is indicative of its structural integrity. Losses in fluorescence intensity usually indicate loss of its tertiary structure (protein denaturation) (Yin D. X., Zhu L., Schimke R. T. Anal. Biochem. 1996, 235:195-201).

Row | Compound | start of oxidation (current increase), cyclic voltammetry ([1]; ITO electrodes) | electrode potential at which it oxidizes ([1]; Indium tin oxide vs Ag/AgCl reference electrode) | potential of reduction into hydroquinone producing OH- ions [1] [V] | loss in GFP fluorescence intensity [2] [%]
1 | O=C1O[C@H]([C@@H](O)CO)C(O)=C1O [ascorbic acid] | around 0.25 V | less than 0.5 V | – | –
2 | O=C1C=CC(=O)C=C1 [unsubstituted benzoquinone, 1,4-benzoquinone] | – | – | −0.1 | 25
